Measurements from PubChem BioAssay (NCI).
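96-well plates; 48 h exposure; 5 concentrations. Endpoints by linear interpolation between flanking doses. Not reached: highest tested concentration assigned. TGI marks complete inhibition of growth.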 Where a SMILES comes first, the peptide text is derived from it. Bridges are numbered along the chain shown (N, C = ends). The star is where a group is joined. Cbz = O=C(OCc1ccccc1)*

What was measured:
Test in all cases: growth of human tumour cells (NCI), 48 h
IGROV1 ovarian = tested on: IGROV1 ovarian
OVCAR-3 ovarian = tested on: OVCAR-3 ovarian
EKVX NSCLC = tested on: EKVX NSCLC
DU-145 prostate = tested on: DU-145 prostate
KM12 colon = tested on: KM12 colon
SK-MEL-28 melanoma = tested on: SK-MEL-28 melanoma
SF-295 CNS = tested on: SF-295 CNS
K-562 leukemia = tested on: K-562 leukemia
HT29 colon = tested on: HT29 colon
SK-MEL-5 melanoma = tested on: SK-MEL-5 melanoma
HOP-92 NSCLC = tested on: HOP-92 NSCLC
SW-620 colon = tested on: SW-620 colon
NCI-H23 lung = tested on: NCI-H23 lung
SN12C renal = tested on: SN12C renal
SNB-19 CNS = tested on: SNB-19 CNS
SF-268 CNS = tested on: SF-268 CNS
TK-10 renal = tested on: TK-10 renal
T-47D breast = tested on: T-47D breast
OVCAR-4 ovarian = tested on: OVCAR-4 ovarian
NCI/ADR-RES ovarian = tested on: NCI/ADR-RES ovarian
UACC-62 melanoma = tested on: UACC-62 melanoma
HCT-116 colon = tested on: HCT-116 colon
SK-OV-3 ovarian = tested on: SK-OV-3 ovarian
HOP-62 NSCLC = tested on: HOP-62 NSCLC
SF-539 CNS = tested on: SF-539 CNS
UO-31 renal = tested on: UO-31 renal
CAKI-1 renal = tested on: CAKI-1 renal
HS 578T breast = tested on: HS 578T breast
COLO 205 colon = tested on: COLO 205 colon
RPMI-8226 leukemia = tested on: RPMI-8226 leukemia
CCRF-CEM leukemia = tested on: CCRF-CEM leukemia
NCI-H226 lung = tested on: NCI-H226 lung
PC-3 prostate = tested on: PC-3 prostate
A549 NSCLC = tested on: A549 NSCLC
MALME-3M melanoma = tested on: MALME-3M melanoma
LOX IMVI melanoma = tested on: LOX IMVI melanoma
U251 CNS = tested on: U251 CNS
NCI-H522 lung = tested on: NCI-H522 lung
786-0 renal = tested on: 786-0 renal
SR leukemia = tested on: SR leukemia
MCF7 breast = tested on: MCF7 breast
OVCAR-8 ovarian = tested on: OVCAR-8 ovarian
MDA-N = tested on: MDA-N
MDA-MB-435 = tested on: MDA-MB-435
UACC-257 melanoma = tested on: UACC-257 melanoma
OVCAR-5 ovarian = tested on: OVCAR-5 ovarian
HCT-15 colon = tested on: HCT-15 colon
ACHN renal = tested on: ACHN renal
A498 renal = tested on: A498 renal
MOLT-4 leukemia = tested on: MOLT-4 leukemia
SK-MEL-2 melanoma = tested on: SK-MEL-2 melanoma
MDA-MB-231 breast = tested on: MDA-MB-231 breast
SNB-75 CNS = tested on: SNB-75 CNS
RXF 393 renal = tested on: RXF 393 renal
NCI-H460 lung = tested on: NCI-H460 lung
M14 melanoma = tested on: M14 melanoma
HL-60(TB) leukemia = tested on: HL-60(TB) leukemia
HCC-2998 colon = tested on: HCC-2998 colon
BT-549 breast = tested on: BT-549 breast

Measured: TGI

COC(=O)C1CCCCNC(=O)CCC(NC(=O)OCc2ccccc2)C(=O)N1 (stereo not drawn) (Cbz-Glu-Lys-OMe; lactam 1-2; configuration not given here)
95.1 µM: HOP-92 NSCLC
not listed: HCC-2998 colon | BT-549 breast
> 100 µM: all other assays above

CCC(=O)NC(OCC1(CC)COC1)(C(F)(F)F)C(F)(F)F
not listed: IGROV1 ovarian | SF-295 CNS | SK-MEL-5 melanoma | HOP-92 NSCLC | SW-620 colon | OVCAR-4 ovarian | NCI/ADR-RES ovarian | CAKI-1 renal | COLO 205 colon | PC-3 prostate | A549 NSCLC | 786-0 renal | OVCAR-8 ovarian
> 100 µM: all other assays above
